Measurements published in ChEMBL document CHEMBL1201861, “Genomics of Drug Sensitity in Cancer screening data, Wellcome Trust Sanger Institute”.

What was measured:
Experiment in all cases: cells
D-502MG = format: functional, cell-based, Homo sapiens
Description: SANGER: Inhibition of human D-502MG cell growth in a cell viability assay.

DMS-114 = format: functional, cell-based, Homo sapiens
EM-2 = format: functional, cell-based, Homo sapiens;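 also: growth inhibition of EM-2 cells, read out with a cell viability assay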
Description: SANGER: Inhibition of human EM-2 cell growth in a cell viability assay.

ES3 = format: functional, cell-based, Homo sapiens;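 also: growth inhibition of ES3 cells, read out with a cell viability assay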
Description: SANGER: Inhibition of human ES3 cell growth in a cell viability assay.

EW-3 = format: functional, cell-based, Homo sapiens;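 also: cell viability assay read-out, IC50 reflects inhibition of growth of the EW-3 cells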
Description: SANGER: Inhibition of human EW-3 cell growth in a cell viability assay.

GR-ST = format: functional, cell-based, Homo sapiens
Description: SANGER: Inhibition of human GR-ST cell growth in a cell viability assay.

GT3TKB = format: functional, cell-based, Homo sapiens;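 also: growth inhibition of the cell line, read out with a cell viability assay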
Description: SANGER: Inhibition of human GT3TKB cell growth in a cell viability assay.

HAL-01 = format: functional, cell-based, Homo sapiens;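 also: growth inhibition of human HAL-01 cells, read out with a cell viability assay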
Description: SANGER: Inhibition of human HAL-01 cell growth in a cell viability assay.

HCE-T = format: functional, cell-based, Homo sapiens;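 also: cell viability assay read-out, reporting inhibition of HCE-T cell growth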
Description: SANGER: Inhibition of human HCE-T cell growth in a cell viability assay.

HT = format: functional, cell-based, Homo sapiens
Description: SANGER: Inhibition of human HT cell growth in a cell viability assay.

HuTu80 = format: functional, cell-based, Homo sapiens, HUTU-80;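 also: growth inhibition of HuTu80 human cells, determined with a cell viability readout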
Description: SANGER: Inhibition of human HUTU-80 cell growth in a cell viability assay.

KMOE-2 = format: functional, cell-based, Homo sapiens;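 also: growth inhibition of human KMOE-2 cells, read out with a cell viability assay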
Description: SANGER: Inhibition of human KMOE-2 cell growth in a cell viability assay.

LB1047-RCC = format: functional, cell-based, Homo sapiens;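 also: inhibition of cell growth, determined with a cell viability assay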
Description: SANGER: Inhibition of human LB1047-RCC cell growth in a cell viability assay.

LB2241-RCC = format: functional, cell-based, Homo sapiens;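 also: cell viability assay measuring how strongly the cultured human renal carcinoma line is prevented from growing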
Description: SANGER: Inhibition of human LB2241-RCC cell growth in a cell viability assay.

LB2518-MEL = format: functional, cell-based, Homo sapiens;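 also: growth inhibition of human LB2518-MEL cells, measured with a cell viability assay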
Description: SANGER: Inhibition of human LB2518-MEL cell growth in a cell viability assay.

LB996-RCC = format: functional, cell-based, Homo sapiens
Description: SANGER: Inhibition of human LB996-RCC cell growth in a cell viability assay.

LS-1034 = format: functional, cell-based, Homo sapiens
Description: SANGER: Inhibition of human LS-1034 cell growth in a cell viability assay.

LU-134-A = format: functional, cell-based, Homo sapiens
Description: SANGER: Inhibition of human LU-134-A cell growth in a cell viability assay.

LXF-289 cell line = format: functional, cell-based, Homo sapiens
Description: SANGER: Inhibition of human LXF-289 cell growth in a cell viability assay.

MC116 = format: functional, cell-based, Homo sapiens;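 also: growth inhibition of MC116 cells, read out with a cell viability assay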
Description: SANGER: Inhibition of human MC116 cell growth in a cell viability assay.

MEG-01 = format: functional, cell-based, Homo sapiens;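 also: growth inhibition of MEG-01 cells, read out by a cell viability assay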
Description: SANGER: Inhibition of human MEG-01 cell growth in a cell viability assay.

MLMA = format: functional, cell-based, Homo sapiens;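 also: growth inhibition of MLMA cells (human), determined through a cell viability readout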
Description: SANGER: Inhibition of human MLMA cell growth in a cell viability assay.

MOLT-4 = format: functional, cell-based, Homo sapiens;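 also: growth inhibition of MOLT-4 cells, determined with a cell viability readout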
Description: SANGER: Inhibition of human MOLT-4 cell growth in a cell viability assay.

MV4-11 = format: functional, cell-based, Homo sapiens, MV-4-11;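 also: cell viability readout measuring growth inhibition of human MV-4-11 cells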
Description: SANGER: Inhibition of human MV-4-11 cell growth in a cell viability assay.

Mo = format: functional, cell-based, Homo sapiens
Description: SANGER: Inhibition of human Mo-T cell growth in a cell viability assay.

NCI-H1155 = format: functional, cell-based, Homo sapiens;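 also: cell growth inhibition measured by a viability assay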
Description: SANGER: Inhibition of human NCI-H1155 cell growth in a cell viability assay.

NCI-H1770 = format: functional, cell-based, Homo sapiens;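 also: growth inhibition of NCI-H1770 cells determined with a viability readout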
Description: SANGER: Inhibition of human NCI-H1770 cell growth in a cell viability assay.

NCI-H23 = format: functional, cell-based, Homo sapiens;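 also: cell viability assay measuring growth inhibition of NCI-H23 cells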
Description: SANGER: Inhibition of human NCI-H23 cell growth in a cell viability assay.

OCI-AML2 = format: functional, cell-based, Homo sapiens;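 also: growth inhibition of OCI-AML2 cells, read out with a cell viability assay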
Description: SANGER: Inhibition of human OCI-AML2 cell growth in a cell viability assay.

OS-RC-2 = format: functional, cell-based, Homo sapiens;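 also: growth inhibition of human OS-RC-2 cells, measured by a cell viability assay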
Description: SANGER: Inhibition of human OS-RC-2 cell growth in a cell viability assay.

RH-1 = format: functional, cell-based, Homo sapiens;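 also: growth inhibition of human RH-1 cells, read out with a cell viability assay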
Description: SANGER: Inhibition of human RH-1 cell growth in a cell viability assay.

RXF 393 = format: functional, cell-based, Homo sapiens;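 also: growth inhibition of human RXF 393 cells, read out with a cell viability assay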
Description: SANGER: Inhibition of human RXF393 cell growth in a cell viability assay.

Ramos-2G6-4C10 = format: functional, cell-based, Homo sapiens;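 also: growth inhibition of the cell line, measured by a cell viability read-out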
Description: SANGER: Inhibition of human Ramos-2G6-4C10 cell growth in a cell viability assay.

SF-539 = format: functional, cell-based, Homo sapiens;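 also: Read-out is a cell viability assay, with IC50 reflecting inhibition of cell growth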
Description: SANGER: Inhibition of human SF539 cell growth in a cell viability assay.

SH-4 = format: functional, cell-based, Homo sapiens;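 also: growth inhibition of SH-4 cells, read out with a cell viability assay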
Description: SANGER: Inhibition of human SH-4 cell growth in a cell viability assay.

SK-MEL-1 = format: functional, cell-based, Homo sapiens;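 also: growth inhibition of human SK-MEL-1 cells, read out by a cell viability assay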
Description: SANGER: Inhibition of human SK-MEL-1 cell growth in a cell viability assay.

SK-NEP-1 = format: functional, cell-based, Homo sapiens;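 also: growth inhibition of human SK-NEP-1 cells, read out by a cell viability assay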
Description: SANGER: Inhibition of human SK-NEP-1 cell growth in a cell viability assay.

SK-PN-DW = format: functional, cell-based, Homo sapiens;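 also: growth inhibition measured with a viability assay on these cells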
Description: SANGER: Inhibition of human SK-PN-DW cell growth in a cell viability assay.

SNU-C2B = format: functional, cell-based, Homo sapiens;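 also: cell viability readout used to measure compound-driven suppression of SNU-C2B cell proliferation, IC50 marking half-maximal growth inhibition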
Description: SANGER: Inhibition of human SNU-C2B cell growth in a cell viability assay.

SW 954 = format: functional, cell-based, Homo sapiens;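 also: growth inhibition of SW954 human cancer cells, read out as cell viability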
Description: SANGER: Inhibition of human SW954 cell growth in a cell viability assay.

TE-1 = format: functional, cell-based, Homo sapiens;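 also: growth inhibition of the human TE-1 cell line, read out with a cell viability assay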
Description: SANGER: Inhibition of human TE-1 cell growth in a cell viability assay.

697 = format: functional, cell-based, Homo sapiens
Description: SANGER: Inhibition of human 697 cell growth in a cell viability assay.

A4-Fuk = format: functional, cell-based, Homo sapiens;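 also: growth inhibition of A4-Fuk cells, read out by a cell viability assay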
Description: SANGER: Inhibition of human A4-Fuk cell growth in a cell viability assay.

A498 = format: functional, cell-based, Homo sapiens;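 also: growth inhibition of human A498 cells, read out with a cell viability assay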
Description: SANGER: Inhibition of human A498 cell growth in a cell viability assay.

A704 = format: functional, cell-based, Homo sapiens;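 also: growth inhibition of human A704 cells, read out with a cell viability assay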
Description: SANGER: Inhibition of human A704 cell growth in a cell viability assay.

BB65-RCC = format: functional, cell-based, Homo sapiens;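 also: growth inhibition of the cell line, measured with a cell viability assay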
Description: SANGER: Inhibition of human BB65-RCC cell growth in a cell viability assay.

BE-13 = format: functional, cell-based, Homo sapiens;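 also: growth inhibition of human BE-13 cells, measured with a cell viability assay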
Description: SANGER: Inhibition of human BE-13 cell growth in a cell viability assay.

U-266 = format: functional, cell-based, Homo sapiens
Description: SANGER: Inhibition of human U-266 cell growth in a cell viability assay.

CAS-1 = format: functional, cell-based, Homo sapiens;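 also: growth inhibition of CAS-1 cells, measured with a cell viability assay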
Description: SANGER: Inhibition of human CAS-1 cell growth in a cell viability assay.

CCN(CC)CCNC(=O)c1c(C)[nH]c(/C=C2\C(=O)Nc3ccc(F)cc32)c1C [SUNITINIB]
IC50 (D-502MG; Homo sapiens, D-502MG): > 8 µM
IC50 (DMS-114; Homo sapiens, DMS-114): > 8 µM
IC50 (EM-2; Homo sapiens, EM-2): > 8 µM
IC50 (ES3; Homo sapiens, ES3): > 8 µM
IC50 (EW-3; Homo sapiens, EW-3): 6.43 µM
IC50 (GR-ST; Homo sapiens, GR-ST): > 8 µM
IC50 (GT3TKB; Homo sapiens, GT3TKB): 6.61 µM
IC50 (HAL-01; Homo sapiens, HAL-01): 2.06 µM
IC50 (HCE-T; Homo sapiens, HCE-T): > 8 µM
IC50 (HT; Homo sapiens, HT): > 8 µM
IC50 (HuTu80; Homo sapiens, HuTu80): > 8 µM
IC50 (KMOE-2; Homo sapiens, KMOE-2): > 8 µM
IC50 (LB1047-RCC; Homo sapiens, LB1047-RCC): 1.82 µM
IC50 (LB2241-RCC; Homo sapiens, LB2241-RCC): > 8 µM
IC50 (LB2518-MEL; Homo sapiens, LB2518-MEL): > 8 µM
IC50 (LB996-RCC; Homo sapiens, LB996-RCC): 4.12 µM
IC50 (LS-1034; Homo sapiens, LS-1034): > 8 µM
IC50 (LU-134-A; Homo sapiens, LU-134-A): > 8 µM
IC50 (LXF-289 cell line; Homo sapiens, LXF-289): 2.73 µM
IC50 (MC116; Homo sapiens, MC116): 4.43 µM
IC50 (MEG-01; Homo sapiens, MEG-01): 1.84 µM
IC50 (MLMA; Homo sapiens, MLMA): > 8 µM
IC50 (MOLT-4; Homo sapiens, MOLT-4): 3.4 µM
IC50 (MV4-11; Homo sapiens, MV4-11): < 0.0312 µM
IC50 (Mo; Homo sapiens, Mo): > 8 µM
IC50 (NCI-H1155; Homo sapiens, NCI-H1155): > 8 µM
IC50 (NCI-H1770; Homo sapiens, NCI-H1770): > 8 µM
IC50 (NCI-H23; Homo sapiens, NCI-H23): > 8 µM
IC50 (OCI-AML2; Homo sapiens, OCI-AML2): 1.37 µM
IC50 (OS-RC-2; Homo sapiens, OS-RC-2): 4.87 µM
IC50 (RH-1; Homo sapiens, RH-1): > 8 µM
IC50 (RXF 393; Homo sapiens, RXF 393): > 8 µM
IC50 (Ramos-2G6-4C10; Homo sapiens, Ramos-2G6-4C10): > 8 µM
IC50 (SF-539; Homo sapiens, SF-539): > 8 µM
IC50 (SH-4; Homo sapiens, SH-4): 5.48 µM
IC50 (SK-MEL-1; Homo sapiens, SK-MEL-1): > 8 µM
IC50 (SK-NEP-1; Homo sapiens, SK-NEP-1): 2.6 µM
IC50 (SK-PN-DW; Homo sapiens, SK-PN-DW): > 8 µM
IC50 (SNU-C2B; Homo sapiens, SNU-C2B): > 8 µM
IC50 (SW 954; Homo sapiens, SW 954): 6.28 µM
IC50 (TE-1; Homo sapiens, TE-1): > 8 µM
IC50 (697; Homo sapiens): 0.614 µM
IC50 (A4-Fuk; Homo sapiens, A4-Fuk): 1.34 µM
IC50 (A498; Homo sapiens, A498): > 8 µM
IC50 (A704; Homo sapiens, A704): > 8 µM
IC50 (BB65-RCC; Homo sapiens, BB65-RCC): > 8 µM
IC50 (BE-13; Homo sapiens, BE-13): 3.23 µM
IC50 (U-266; Homo sapiens, U-266): > 8 µM
IC50 (CAS-1; Homo sapiens, CAS-1): > 8 µM

BLEOMYCIN
IC50 (D-502MG; d-502mg): 1010 µM
IC50 (DMS-114; dms-114): 6.79 µM
IC50 (EM-2; em-2): 84.8 µM
IC50 (ES3; es3): 1.61 µM
IC50 (EW-3; ew-3): 18.5 µM
IC50 (GR-ST; gr-st): 23.1 µM
IC50 (GT3TKB; gt3tkb): 0.00685 µM
IC50 (HAL-01; hal-01): 0.000453 µM
IC50 (HCE-T; hce-t): 2.83 µM
IC50 (HT; ht): 5.56 µM
IC50 (HuTu80; hutu-80): 0.000136 µM
IC50 (KMOE-2; kmoe-2): 544 µM
IC50 (LB1047-RCC; lb1047-rcc): 0.0325 µM
IC50 (LB2241-RCC; lb2241-rcc): 0.738 µM
IC50 (LB2518-MEL; lb2518-mel): 0.182 µM
IC50 (LB996-RCC; lb996-rcc): 0.175 µM
IC50 (LS-1034; ls-1034): 35.4 µM
IC50 (LU-134-A; lu-134-a): 41.8 µM
IC50 (LXF-289 cell line; lxf-289): 0.644 µM
IC50 (MC116; mc116): 2.11 µM
IC50 (MEG-01; meg-01): 0.395 µM
IC50 (MLMA; mlma): 0.87 µM
IC50 (MOLT-4; molt-4): 1.77 µM
IC50 (MV4-11; mv-4-11): 0.00991 µM
IC50 (Mo; mo): 103 µM
IC50 (NCI-H1155; nci-h1155): 73.2 µM
IC50 (NCI-H1770; nci-h1770): 5.29 µM
IC50 (NCI-H23; nci-h23): 2.47 µM
IC50 (OCI-AML2; oci-aml2): 2.26 µM
IC50 (OS-RC-2; os-rc-2): 3.02 µM
IC50 (RH-1; rh-1): 0.152 µM
IC50 (RXF 393; rxf 393): 176 µM
IC50 (Ramos-2G6-4C10; ramos-2g6-4c10): 9.88 µM
IC50 (SF-539; sf-539): 0.393 µM
IC50 (SH-4; sh-4): 7.85 µM
IC50 (SK-MEL-1; sk-mel-1): 260 µM
IC50 (SK-NEP-1; sk-nep-1): 31.9 µM
IC50 (SK-PN-DW; sk-pn-dw): 1.45 µM
IC50 (SNU-C2B; snu-c2b): 2.32 µM
IC50 (SW 954; sw 954): 0.00957 µM
IC50 (TE-1; te-1): 6.43 µM
IC50 697: 1.58 µM
IC50 (A4-Fuk; a4-fuk): 25.3 µM
IC50 (A498; a498): 1020 µM
IC50 (A704; a704): 10.6 µM
IC50 (BB65-RCC; bb65-rcc): 21.4 µM
IC50 (BE-13; be-13): 0.399 µM
IC50 (U-266; u-266): 282 µM
IC50 (CAS-1; cas-1): 81 µM
